Test results from patent US20240228482A1, “COMPOUNDS, COMPOSITIONS AND METHODS OF TREATING CANCER” (HOTSPOT THERAPEUTICS, INC., priority 2021, published 2024).

Target: T1, CBL-B (Homo sapiens, UniProt Q13191)
T1 construct: GST
Assay: CBL-B TR-FRET IC50 screening (E1/E2 ubiquitination, Biotin-Ubiquitin, Anti GST-Tb donor / Streptavidin-d2 acceptor)
Type: biochemical
Settings: CBL-B 10 nM final; 11-point titration from 100 uM; binned A-F; read-out: CBL-B TR-FRET activity IC50

T1 sequence (Q13191 whole entry): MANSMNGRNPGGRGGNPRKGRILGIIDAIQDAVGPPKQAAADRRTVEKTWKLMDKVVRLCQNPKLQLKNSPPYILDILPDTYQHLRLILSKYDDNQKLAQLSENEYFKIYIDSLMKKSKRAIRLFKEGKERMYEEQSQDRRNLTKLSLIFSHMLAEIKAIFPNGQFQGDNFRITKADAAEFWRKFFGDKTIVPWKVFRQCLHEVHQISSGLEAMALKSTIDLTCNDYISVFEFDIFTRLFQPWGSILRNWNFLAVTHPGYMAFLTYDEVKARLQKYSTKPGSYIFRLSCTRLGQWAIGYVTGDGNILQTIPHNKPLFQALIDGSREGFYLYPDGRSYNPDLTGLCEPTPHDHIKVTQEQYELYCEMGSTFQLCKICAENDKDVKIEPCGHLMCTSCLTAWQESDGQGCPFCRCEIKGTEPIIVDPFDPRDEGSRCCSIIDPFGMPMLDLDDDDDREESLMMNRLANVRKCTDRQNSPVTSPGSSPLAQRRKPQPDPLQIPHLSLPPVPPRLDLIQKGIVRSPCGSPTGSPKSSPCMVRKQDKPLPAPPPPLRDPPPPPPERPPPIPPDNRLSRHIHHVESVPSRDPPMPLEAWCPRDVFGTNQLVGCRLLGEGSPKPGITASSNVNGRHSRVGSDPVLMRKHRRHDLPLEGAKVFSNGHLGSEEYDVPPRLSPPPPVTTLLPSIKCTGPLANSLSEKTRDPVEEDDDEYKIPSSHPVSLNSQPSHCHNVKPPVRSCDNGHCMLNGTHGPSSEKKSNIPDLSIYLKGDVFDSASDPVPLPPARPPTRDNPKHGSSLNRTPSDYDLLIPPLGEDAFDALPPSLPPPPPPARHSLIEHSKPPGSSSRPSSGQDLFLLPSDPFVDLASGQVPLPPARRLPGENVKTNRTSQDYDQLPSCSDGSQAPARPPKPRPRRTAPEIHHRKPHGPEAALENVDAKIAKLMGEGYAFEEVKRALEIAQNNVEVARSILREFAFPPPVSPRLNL

| Structure (SMILES) | IC50 |
| --- | --- |
| Cn1cnnc1C[C@H]1CCc2c1cccc2-n1cc2c(C(F)(F)F)cccn2c1=O (single isomer, unassigned) [Compound 16] | > 10000 nM |
| C[C@@H](c1cc(C(F)(F)F)c2cn(-c3cccc(C4(Cc5nncn5C)COC4)c3)c(=O)n2c1)N1CC2CC2C1 (single isomer, unassigned) [Compound 32] | < 100 nM |
| Cn1cnnc1[C@H](F)C1(c2cccc(-n3cc4c(C(F)(F)F)cc(CN5CCC(F)CC5)cn4c3=O)c2)COC1 (single isomer, unassigned) [Compound 45] | < 100 nM |
| C[C@H]1CCCN(Cc2cc(C(F)(F)F)c3cn(-c4cccc([C@]5(c6nncn6C)C[C@@H](C)C5)c4)c(=O)n3c2)C1 (single isomer, unassigned) [Compound 59] | < 100 nM |
| C[C@H]1CCCN(Cc2cc(C(F)(F)F)c3cn(-c4cccc([C@]5(c6nncn6C)C[C@@H](C)C5)c4)c(=O)n3c2)C1 (single isomer, unassigned) [Compound 60] | < 100 nM |
| Cn1cnnc1CC1(c2cccc(-n3cc4c(Cl)cc(CN5CCC6(CC6)C5)cn4c3=O)c2)COC1 (single isomer, unassigned) [Compound 67] | < 100 nM |
| C=C(C)C[C@@H](c1cccc(-n2cc3c(C(F)(F)F)cc(CN4CCC[C@H](C)C4)cn3c2=O)c1)c1nncn1C (single isomer, unassigned) [Compound 68] | < 100 nM |
| Cn1cnnc1CC1(c2cccc(-n3cc4c(C(F)(F)F)cc(CO)cn4c3=O)c2)COC1 (single isomer, unassigned) [Compound 81] | 301 to 1000 nM |
| CN1CCC(c2cc(C(F)(F)F)c3cn(-c4cccc(C5(Cc6nncn6C)COC5)c4)c(=O)n3c2)CC1 (single isomer, unassigned) [Compound 82] | < 100 nM |
| CC(c1cc(C(F)(F)F)c2cn(-c3cccc(C4(Cc5nncn5C(F)F)COC4)c3)c(=O)n2c1)N1CCC(F)CC1 (single isomer, unassigned) [Compound 96] | < 100 nM |
| CC(c1cc(C(F)(F)F)c2cn(-c3cccc(C4(Cc5nncn5C(F)F)COC4)c3)c(=O)n2c1)N1CCC(F)CC1 (single isomer, unassigned) [Compound 97] | < 100 nM |
| CC1CN(Cc2cc(C(F)(F)F)c3cn(-c4cccc([C@]5(Cc6nncn6C)C[C@@H](C#N)C5)c4)c(=O)n3c2)CCC1(F)F (single isomer, unassigned) [Compound 99] | < 100 nM |
| CC1CN(Cc2cc(C(F)(F)F)c3cn(-c4cccc([C@]5(Cc6nncn6C)C[C@@H](C#N)C5)c4)c(=O)n3c2)CCC1(F)F (single isomer, unassigned) [Compound 100] | < 100 nM |
| CC(c1cc(C(F)(F)F)c2cn(-c3cccc(C4(Cc5nncn5C)COC4)c3)c(=O)n2c1)N1CCC[C@H](C)C1 (single isomer, unassigned) [Compound 119] | < 100 nM |
| CC(c1cc(C(F)(F)F)c2cn(-c3cccc(C4(Cc5nncn5C)COC4)c3)c(=O)n2c1)N1CCC[C@H](C)C1 (single isomer, unassigned) [Compound 120] | < 100 nM |
| C[C@H]1CCCN(Cc2cc(C(F)(F)F)c3cn(-c4cccc([C@@H](c5nncn5C)C5COC5)c4)c(=O)n3c2)C1 (single isomer, unassigned) [Compound 134] | 301 to 1000 nM |
| [2H]C([2H])([2H])n1cnnc1[C@@H](c1cccc(-n2cc3c(C(F)(F)F)cc(CN4CCC[C@H](C)C4)cn3c2=O)c1)C1CCC1 (single isomer, unassigned) [Compound 135] | < 100 nM |
| [2H]C([2H])([2H])n1cnnc1[C@H](c1cccc(-n2cc3c(C(F)(F)F)cc(CN4CCC[C@H](C)C4)cn3c2=O)c1)C1CCC1 (single isomer, unassigned) [Compound 136] | 301 to 1000 nM |
| [2H]C([2H])([2H])n1cnnc1[C@@H](c1cccc(-n2cc3c(C(F)(F)F)cc(CN4CCO[C@H](C)C4)cn3c2=O)c1)C1CCC1 (single isomer, unassigned) [Compound 137] | < 100 nM |
| [2H]C([2H])([2H])n1cnnc1[C@H](c1cccc(-n2cc3c(C(F)(F)F)cc(CN4CCO[C@H](C)C4)cn3c2=O)c1)C1CCC1 (single isomer, unassigned) [Compound 138] | 1000 to 3000 nM |
| CC1CC(c2cccc(-n3cc4c(C(F)(F)F)cc(Br)cn4c3=O)c2)(c2nncn2C)C1 (single isomer, unassigned) [Compound 150] | < 100 nM |
| CC(C)C[C@H](c1cccc(-n2cc3c(C(F)(F)F)cc(CN4CCC[C@H](C)C4)cn3c2=O)c1)c1nncn1C (single isomer, unassigned) [Compound 151] | 301 to 1000 nM |
| CC(C)C[C@@H](c1cccc(-n2cc3c(C(F)(F)F)cc(CN4CCC[C@H](C)C4)cn3c2=O)c1)c1nncn1C (single isomer, unassigned) [Compound 152] | > 10000 nM |
| CC1CC(c2cccc(-n3cc4c(C(F)(F)F)cc(Br)cn4c3=O)c2)(c2nncn2C)C1 (single isomer, unassigned) [Compound 154] | < 100 nM |
| CC(c1cc(C(F)(F)F)c2cn(-c3cccc(C4(Cc5nncn5C)COC4)c3)c(=O)n2c1)N1CCO[C@H](C)C1 (single isomer, unassigned) [Compound 156] | < 100 nM |

| Structure (SMILES) | IC50 |
| --- | --- |
| CC(c1cc(C(F)(F)F)c2cn(-c3cccc(C4(Cc5nncn5C)COC4)c3)c(=O)n2c1)N1CCO[C@H](C)C1 (single isomer, unassigned) [Compound 157] | < 100 nM |
| Cn1cnnc1[C@@H](c1cccc(-n2cc3c(C(F)(F)F)cc(CN4CC[C@H](F)C4)cn3c2=O)c1)C1CCC1 (single isomer, unassigned) [Compound 159] | < 100 nM |
| Cn1cnnc1[C@@H](c1cccc(-n2cc3c(C(F)(F)F)cc(CN4CCC(C)(F)CC4)cn3c2=O)c1)C1CCC1 (single isomer, unassigned) [Compound 161] | < 100 nM |
| Cn1cnnc1[C@H](c1cccc(-n2cc3c(C(F)(F)F)cc(CN4CCC5(CC5)C4)cn3c2=O)c1)C1CCC1 (single isomer, unassigned) [Compound 162] | 1000 to 3000 nM |
| Cn1cnnc1[C@@H](c1cccc(-n2cc3c(C(F)(F)F)cc(CN4CCC5(CC5)C4)cn3c2=O)c1)C1CCC1 (single isomer, unassigned) [Compound 163] | < 100 nM |
| Cn1cnnc1[C@H](c1cccc(-n2cc3c(C(F)(F)F)cc(CN4CC5(CC5)C4)cn3c2=O)c1)C1CCC1 (single isomer, unassigned) [Compound 164] | 3000 to 10000 nM |
| Cn1cnnc1[C@@H](c1cccc(-n2cc3c(C(F)(F)F)cc(CN4CC5(CC5)C4)cn3c2=O)c1)C1CCC1 (single isomer, unassigned) [Compound 165] | < 100 nM |
| CC1CN(Cc2cc(C(F)(F)F)c3cn(-c4cccc([C@@H](c5nncn5C)C5CCC5)c4)c(=O)n3c2)CCC1(F)F (single isomer, unassigned) [Compound 169] | 3000 to 10000 nM |
| CC1CN(Cc2cc(C(F)(F)F)c3cn(-c4cccc([C@@H](c5nncn5C)C5CCC5)c4)c(=O)n3c2)CCC1(F)F (single isomer, unassigned) [Compound 170] | 1000 to 3000 nM |
| CC1CN(Cc2cc(C(F)(F)F)c3cn(-c4cccc([C@H](c5nncn5C)C5CCC5)c4)c(=O)n3c2)CCC1(F)F (single isomer, unassigned) [Compound 171] | < 100 nM |
| CC1CN(Cc2cc(C(F)(F)F)c3cn(-c4cccc([C@H](c5nncn5C)C5CCC5)c4)c(=O)n3c2)CCC1(F)F (single isomer, unassigned) [Compound 172] | < 100 nM |
| Cn1cnnc1[C@H](c1cccc(-n2cc3c(C(F)(F)F)cc(CN4CC[C@H](C#N)C4)cn3c2=O)c1)C1CCC1 (single isomer, unassigned) [Compound 173] | 3000 to 10000 nM |
| Cn1cnnc1[C@@H](c1cccc(-n2cc3c(C(F)(F)F)cc(CN4CC[C@H](C#N)C4)cn3c2=O)c1)C1CCC1 (single isomer, unassigned) [Compound 174] | < 100 nM |
| Cn1cnnc1CC1(c2cccc(-n3cc4c(C(F)(F)F)cc(CN5CCCC(O)CC5)cn4c3=O)c2)COC1 (single isomer, unassigned) [Compound 176] | < 100 nM |
| Cn1cnnc1CC1(c2cccc(-n3cc4c(C(F)(F)F)cc(CN5CCCC(O)CC5)cn4c3=O)c2)COC1 (single isomer, unassigned) [Compound 177] | < 100 nM |
| CN1CCCCC1c1cc(C(F)(F)F)c2cn(-c3cccc(C4(Cc5nncn5C)COC4)c3)c(=O)n2c1 (single isomer, unassigned) [Compound 186] | 100 to 300 nM |
| CN1CCCCC1c1cc(C(F)(F)F)c2cn(-c3cccc(C4(Cc5nncn5C)COC4)c3)c(=O)n2c1 (single isomer, unassigned) [Compound 187] | 100 to 300 nM |
| [2H]C([2H])([2H])n1cnnc1C1(c2cccc(-n3cc4c(C(F)(F)F)cc(CN5CCC[C@H](C)C5)cn4c3=O)c2)CC(C)C1 (single isomer, unassigned) [Compound 189] | < 100 nM |
| CC1CC(c2cccc(-n3cc4c(C(F)(F)F)cc(CN5CCO[C@H](C)C5)cn4c3=O)c2)(c2nncn2C)C1 (single isomer, unassigned) [Compound 190] | < 100 nM |
| CC(c1cc(C(F)(F)F)c2cn(-c3cccc([C@@H](c4nncn4C)C4CCC4)c3)c(=O)n2c1)N1CCC[C@H](C)C1 (single isomer, unassigned) [Compound 191] | 301 to 1000 nM |
| CC(c1cc(C(F)(F)F)c2cn(-c3cccc([C@@H](c4nncn4C)C4CCC4)c3)c(=O)n2c1)N1CCC[C@H](C)C1 (single isomer, unassigned) [Compound 192] | < 100 nM |
| CC(c1cc(C(F)(F)F)c2cn(-c3cccc([C@H](c4nncn4C)C4CCC4)c3)c(=O)n2c1)N1CCC[C@H](C)C1 (single isomer, unassigned) [Compound 193] | < 100 nM |
| CC(c1cc(C(F)(F)F)c2cn(-c3cccc([C@H](c4nncn4C)C4CCC4)c3)c(=O)n2c1)N1CCC[C@H](C)C1 (single isomer, unassigned) [Compound 194] | < 100 nM |
| C[C@H]1CCCN(C(c2cc(C(F)(F)F)c3cn(-c4cccc(C5(Cc6nncn6C)COC5)c4)c(=O)n3c2)C(F)(F)F)C1 (single isomer, unassigned) [Compound 195] | 100 to 300 nM |
| C[C@H]1CCCN(C(c2cc(C(F)(F)F)c3cn(-c4cccc(C5(Cc6nncn6C)COC5)c4)c(=O)n3c2)C(F)(F)F)C1 (single isomer, unassigned) [Compound 196] | 301 to 1000 nM |
